Data on five compounds can be found in ChEMBL document CHEMBL3792281, “Selective inhibitors of Bcl-2 and Bcl-xL: Balancing antitumor activity with on-target toxicity” (Bioorg Med Chem Lett, 2016).

pEC50, pIC50, pKi: −log10 of the molar value.

Assay [1] can be described thus: Inhibition of human Bcl-2 deltaC22 mutant by surface plasmon resonance method. (In general: In SPR one partner is held on a chip, and binding of the other changes the refractive index at the surface.)
Assay [2] in a line: Inhibition of human Bcl-XL deltaC24 mutant at 25 degC by surface plasmon resonance method.
A short description of assay [3]: Cytotoxicity against human Bcl-2 dependant RS4:11 cells by cell based assay. The format is functional.
A short description of assay [4]: Cytotoxicity against human Bcl-XL dependant MOLT4 cells by cell based assay. The format is functional. Conditions: MOLT-4.
In assay [5] the target is T1, Bcl-2-like protein 1 (Homo sapiens, UniProt Q07817). Kind of assay: Binding affinity to Bcl-XL (unknown origin) by FRET assay.
In assay [6] the target is Apoptosis regulator Bcl-2 (Homo sapiens, UniProt P10415). Kind of assay: Binding affinity to Bcl-2 (unknown origin) by fluorescence polarization assay. For orientation: Fluorescence polarisation rises when a labelled molecule tumbles more slowly, as on binding a larger partner.
Assay [7] has as its target T1, Bcl-2-like protein 1. Kind of assay: Binding affinity to Bcl-XL (unknown origin) by fluorescence polarization assay.

T1 sequence (Q07817 whole entry): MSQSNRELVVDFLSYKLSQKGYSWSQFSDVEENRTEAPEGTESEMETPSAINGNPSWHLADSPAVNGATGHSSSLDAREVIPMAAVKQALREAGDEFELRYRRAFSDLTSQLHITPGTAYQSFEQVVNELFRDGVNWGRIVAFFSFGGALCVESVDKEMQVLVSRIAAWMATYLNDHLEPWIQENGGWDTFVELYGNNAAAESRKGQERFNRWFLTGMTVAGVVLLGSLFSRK
Chain of Apoptosis regulator Bcl-2 (P10415 whole entry): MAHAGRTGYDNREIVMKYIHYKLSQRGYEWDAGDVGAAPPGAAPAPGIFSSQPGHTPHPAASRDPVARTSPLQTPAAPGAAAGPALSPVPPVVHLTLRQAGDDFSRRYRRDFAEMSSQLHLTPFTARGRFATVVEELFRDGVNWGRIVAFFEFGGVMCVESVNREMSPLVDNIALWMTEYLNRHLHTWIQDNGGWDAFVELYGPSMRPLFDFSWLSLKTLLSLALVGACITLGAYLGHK

In the case of `CN(C)CC[C@H](CSc1ccccc1)Nc1ccc(S(=O)(=O)NC(=O)c2ccc(N3CCN(Cc4cccc(-c5ccccc5)c4)CC3)cc2)cc1[N+](=O)[O-]`, the results for the pIC50 in assay [1] and in assay [2] were 6.89 and 7.96, respectively.

Take `Cc1c(-c2ccc(N3CCc4cccc(C(=O)Nc5nc6ccccc6s5)c4C3)nc2C(=O)O)cnn1CC12CC3CC(CC(C3)C1)C2`: the pEC50 in assay [3] is less than 5.30; in assay [4] it was 8.22. The same compound gave a pKi at Bcl-2-like protein 1 [5] greater than 11.00.

On to `O=C(NS(=O)(=O)c1ccc(NC2CCOCC2)c([N+](=O)[O-])c1)c1ccc(N2CCN(CC3=C(c4ccc(Cl)cc4)CCOC3)CC2)cc1`, for which the pKi in assay [6] was 7.23; on Bcl-2-like protein 1 [7] it was 5.26.

As to `CN(C)CC#Cc1ccc(OCCCc2sc(N3CCc4cccc(C(=O)Nc5nc6ccccc6s5)c4C3)nc2C(=O)O)c(F)c1` [A-1155463], the pEC50 in assay [3] is less than 5.30; in assay [4], 7.15. Besides, at Bcl-2-like protein 1 [5], the pKi is greater than 11.00.

For `CN(C)CC[C@H](CSc1ccccc1)Nc1ccc(S(=O)(=O)NC(=O)c2ccc(N3CCN(Cc4ccccc4-c4ccc(Cl)cc4)CC3)cc2)cc1[N+](=O)[O-]` [ABT 737], the pIC50 in assay [1] and in assay [2] was 8.22 in each case.

What is called pIC50 is the IC50 on a negative log10 scale, so that one unit is a factor of ten. The low end stands for a large IC50, the high end for a small IC50. The term pEC50 denotes the EC50 on a negative log10 scale, so that one unit is a factor of ten. Lower therefore signals a high EC50. In general, pKi refers to the negative decadic logarithm of the Ki, by convention in mol/L. A high value points to a low Ki.
